Data from patent US8716473B2, “Substituted benzotriazines and quinoxalines as inhibitors of P7OS6 kinase” (Sentinel Oncology Limited, priority 2009, dated 2014).
Structures can show the parent of a compound that is named as a salt.

Tests used:
p70S6K (h) = p70S6K (h) (Homo sapiens, UniProt P23443); test: Determination of p70S6 inhibitory activity (radiometric 33P-ATP filter assay); assay type: biochemical; settings: 40 min at room temperature, read-out: IC50 against P70S6 kinase
Experimental: The ability of compounds of the invention to inhibit P70S6 kinase was determined using the protocol below.
• 20 mM MOPS, 1 mM EDTA, 0.01% Brij-35, 5% Glycerol, 0.1% b-mercaptoethanol, 1 mg/mL BSA Method: • p70S6K (h)
In a final reaction volume of 25 μL, p70S6K (h) (5-10 mU) is incubated with 8 mM MOPS pH 7.0, 0.2 mM EDTA, 100 μM KKRNRTLTV, 10 mM Mg acetate and [γ-33P-ATP] (specific activity approx. 500 cpm/pmol, concentration as required). The reaction is initiated by the addition of the MgATP mix. After incubation for 40 minutes at room temperature, the reaction is stopped by the addition of 5 μL of a 3% phosphoric acid solution. 10 μL of the reaction mixture is then spotted onto a P30 filtermat and washed three times for 5 minutes in 75 mM phosphoric acid and once in methanol prior to drying and scintillation counting.

[1] = tested on: phosphorylation of S6 Ser235/236 in MCF-7 cells; test: Inhibition of P70S6K activity in whole cells: phospho-S6 ELISA in MCF-7 cells; assay type: cell-based; settings: Homo sapiens, MCF7, 2 h incubation, 1% FBS
Experimental: The following assay provides IC50 values for inhibition of P70S6K activity in a whole cell assay by determining effects on the phosphorylation of S6^Ser235/236 in MCF-7 cells by ELISA.
The following protocol was used: • 1) MCF-7 cells were seeded in 96-well plates at a density of 7×10^3 cells per well and allowed to adhere for 6 h in media containing 10% FBS. • 2) The full serum media was replaced and cells incubated overnight in media containing 1% FBS, prior to addition of test compounds. • 3) Test compounds were prepared from 10 mM or 5 mM (BEZ-235) DMSO stocks to give final concentration ranges as indicated on graphs. DMSO was constant at a final concentration of 1%. • 4) Test compounds were incubated with cells in duplicate for 2 h at 37° C./5% CO2 in a humidified atmosphere. • 5) The media was removed and cells were lysed by freeze-thawing in cell lysis buffer. • 6) Detection of phosphorylated S6Ser235/236 was then carried out using a PathScan ELISA kit (Cell Signaling Technology #7205). • 7) Lysates were diluted 1:1 with sample diluent before being applied to wells coated with an antibody against phosphorylated-S6 protein. • 8) The ELISA was then performed as stated in the manufacturers' instructions. • 9) The raw data were normalised to control values and analysed using a 4-parameter logistic equation in GraphPad Prism.

p70S6K (h), sequence (P23443 whole entry): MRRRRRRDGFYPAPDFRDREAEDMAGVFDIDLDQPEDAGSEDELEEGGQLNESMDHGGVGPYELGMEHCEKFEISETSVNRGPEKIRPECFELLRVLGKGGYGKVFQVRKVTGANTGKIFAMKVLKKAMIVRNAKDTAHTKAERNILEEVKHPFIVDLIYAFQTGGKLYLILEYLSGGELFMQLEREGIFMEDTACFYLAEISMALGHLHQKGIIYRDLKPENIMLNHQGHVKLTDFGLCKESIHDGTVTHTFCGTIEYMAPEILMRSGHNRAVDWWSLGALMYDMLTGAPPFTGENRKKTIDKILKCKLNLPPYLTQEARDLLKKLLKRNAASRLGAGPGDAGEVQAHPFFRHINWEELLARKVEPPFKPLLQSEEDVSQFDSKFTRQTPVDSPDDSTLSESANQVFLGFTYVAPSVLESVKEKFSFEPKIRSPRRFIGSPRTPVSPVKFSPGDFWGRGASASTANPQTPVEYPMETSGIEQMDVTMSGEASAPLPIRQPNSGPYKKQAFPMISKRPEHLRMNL

SMILES | IC50 (p70S6K (h)) [nM] | IC50 [1] [µM]
Clc1ccccc1CNc1cnc2cc(-c3cn[nH]c3)ccc2n1 [Example 10, (2-Chloro-benzyl)-[6-(1H-pyrazol-4-yl)-quinoxalin-2-yl]-amine] | < 1000 | –
c1cc(CNc2cnc3cc(-c4cn[nH]c4)ccc3n2)ccn1 [Example 14, [6-(1H-Pyrazol-4-yl)-quinoxalin-2-yl]-pyridin-4-ylmethyl-amine hydrochloride] | < 5000 | –
c1cncc(CNc2cnc3cc(-c4cn[nH]c4)ccc3n2)c1 [Example 15, [6-(1H-Pyrazol-4-yl)-quinoxalin-2-yl]-pyridin-3-ylmethyl-amine hydrochloride] | < 1000 | –
c1ccc(CNc2cnc3cc(-c4cn[nH]c4)ccc3n2)nc1 [Example 16, [6-(1H-Pyrazol-4-yl)-quinoxalin-2-yl]-pyridin-2-ylmethyl-amine hydrochloride] | < 5000 | –
COc1ccccc1CNc1cnc2cc(-c3cn[nH]c3)ccc2n1 [Example 19, (2-Methoxy-benzyl)-[6-(1H-pyrazol-4-yl)-quinoxalin-2-yl]-amine] | < 1000 | –
Fc1ccc(CNc2cnc3cc(-c4cn[nH]c4)ccc3n2)cc1C(F)(F)F [Example 20, (4-Fluoro-3-trifluoromethyl-benzyl)-[6-(1H-pyrazol-4-yl)-quinoxalin-2-yl]-amine] | < 1000 | –
CN(Cc1ccccc1)c1cnc2cc(-c3ccncc3)ccc2n1 [Example 22, Benzyl-methyl-(6-pyridin-4-yl-quinoxalin-2-yl)-amine] | < 1000 | –
CN(Cc1ccccc1)c1cnc2cc(-c3ccncn3)ccc2n1 [Example 23, Benzyl-methyl-(6-pyrimidin-4-yl-quinoxalin-2-yl)-amine] | < 1000 | –
C[C@H](Nc1cnc2cc(-c3cn[nH]c3)ccc2n1)c1ccccc1 [Example 24, ((S)-1-Phenyl-ethyl)-[6-(1H-pyrazol-4-yl)-quinoxalin-2-yl]-amine hydrochloride] | < 5000 | –
CN(Cc1ccc(F)c(C(F)(F)F)c1)c1cnc2cc(-c3cn[nH]c3)ccc2n1 [Example 29, (4-Fluoro-3-trifluoromethyl-benzyl)-methyl-[6-(1H-pyrazol-4-yl)-quinoxalin-2-yl]-amine] | < 1000 | –
FC(F)(F)Oc1cccc(CNc2cnc3cc(-c4cn[nH]c4)ccc3n2)c1 [Example 30, [6-(1H-Pyrazol-4-yl)-quinoxalin-2-yl]-(3-trifluoromethoxy-benzyl)-amine] | < 1000 | –
CN(Cc1ccccc1)c1nc2ccc(-c3cn[nH]c3)cc2[n+]([O-])n1 [Example 34, Benzyl-methyl-[1-oxy-7-(1H-pyrazol-4-yl)-benzo[1,2,4]triazin-3-yl]-amine] | < 100 | –
CN(Cc1ccccc1)c1nnc2cc(-c3cn[nH]c3)ccc2n1 [Example 35, Benzyl-methyl-[7-(1H-pyrazol-4-yl)-benzo[1,2,4]triazin-3-yl]-amine] | < 100 | –
COc1cccc(CNc2nc3ccc(-c4cn[nH]c4)cc3[n+]([O-])n2)c1 [Example 36, (3-Methoxy-benzyl)-[1-oxy-7-(1H-pyrazol-4-yl)-benzo[1,2,4]triazin-3-yl]-amine] | < 100 | –
COc1cccc(CNc2nnc3cc(-c4cn[nH]c4)ccc3n2)c1 [Example 37, (3-Methoxy-benzyl)-[7-(1H-pyrazol-4-yl)-benzo[1,2,4]triazin-3-yl]-amine] | < 1000 | –
c1ccc2cc(CNc3cnc4cc(-c5cn[nH]c5)ccc4n3)ccc2c1 [Example 39, Naphthalen-2-ylmethyl-[6-(1H-pyrazol-4-yl)-quinoxalin-2-yl]-amine hydrochloride] | < 1000 | –
FC(F)(F)c1ccc(CNc2cnc3cc(-c4cn[nH]c4)ccc3n2)cc1 [Example 40, [6-(1H-Pyrazol-4-yl)-quinoxalin-2-yl]-(4-trifluoromethyl-benzyl)-amine] | < 1000 | –
CN(Cc1ccccc1)c1cnc2cc(-c3cncnc3)ccc2n1 [Example 43, Benzyl-methyl-(6-pyrimidin-5-yl-quinoxalin-2-yl)-amine] | < 100 | < 20

SMILES | IC50 (p70S6K (h)) [nM] | IC50 [1] [µM]
Cc1ccc(CNc2cnc3cc(-c4cn[nH]c4)ccc3n2)cc1 [Example 44, (4-Methyl-benzyl)-[6-(1H-pyrazol-4-yl)-quinoxalin-2-yl]-amine] | < 100 | –
CN(Cc1ccccc1Cl)c1cnc2cc(-c3cn[nH]c3)ccc2n1 [Example 45, (2-Chloro-benzyl)-methyl-[6-(1H-pyrazol-4-yl)-quinoxalin-2-yl]-amine hydrochloride] | < 1000 | –
CN1CCN(c2cccc(CN(C)c3cnc4cc(-c5cn[nH]c5)ccc4n3)c2)CC1 [Example 48, Methyl-[3-(4-methyl-piperazin-1-yl)-benzyl]-[6-(1H-pyrazol-4-yl)-quinoxalin-2-yl]-amine] | < 100 | –
C[C@H](c1ccccc1)N(C)c1cnc2cc(-c3cn[nH]c3)ccc2n1 [Example 51, Methyl-((R)-1-phenyl-ethyl)-[6-(1H-pyrazol-4-yl)-quinoxalin-2-yl]-amine] | < 100 | < 5
COc1cccc([C@@H](C)N(C)c2cnc3cc(-c4cn[nH]c4)ccc3n2)c1 [Example 53, [(R)-1-(3-Methoxy-phenyl)-ethyl]-methyl-[6-(1H-pyrazol-4-yl)-quinoxalin-2-yl]-amine hydrochloride] | < 100 | < 1
Oc1cccc(CNc2cnc3cc(-c4cn[nH]c4)ccc3n2)c1 [Example 54, 3-{[6-(1H-Pyrazol-4-yl)-quinoxalin-2-ylamino]-methyl}-phenol] | < 100 | < 5
C[C@@H](Nc1cnc2cc(-c3cn[nH]c3)ccc2n1)c1cccc(Cl)c1 [Example 55, [(R)-1-(3-Chloro-phenyl)-ethyl]-[6-(1H-pyrazol-4-yl)-quinoxalin-2-yl]-amine hydrochloride] | < 100 | < 1
C[C@H](c1cccc(Cl)c1)N(C)c1cnc2cc(-c3cn[nH]c3)ccc2n1 [Example 56, [(R)-1-(3-Chloro-phenyl)-ethyl]-methyl-[6-(1H-pyrazol-4-yl)-quinoxalin-2-yl]-amine] | – | < 5
C[C@@H](c1ccccc1)N(C)c1cnc2cc(-c3cn[nH]c3)ccc2n1 [Example 57, Methyl-((S)-1-phenyl-ethyl)-[6-(1H-pyrazol-4-yl)-quinoxalin-2-yl]-amine] | < 1000 | –
Cc1cccc([C@@H](C)Nc2cnc3cc(-c4cn[nH]c4)ccc3n2)c1 [Example 58, [6-(1H-Pyrazol-4-yl)-quinoxalin-2-yl]-((R)-1-m-tolyl-ethyl)-amine hydrochloride] | – | < 1
C[C@H](Nc1cnc2cc(-c3cn[nH]c3)ccc2n1)c1cccc(F)c1 [Example 59, [(S)-1-(3-Fluoro-phenyl)-ethyl]-[6-(1H-pyrazol-4-yl)-quinoxalin-2-yl]-amine hydrochloride] | < 5000 | < 20
C[C@@H](c1cccc(F)c1)N(C)c1cnc2cc(-c3cn[nH]c3)ccc2n1 [Example 60, [(S)-1-(3-Fluoro-phenyl)-ethyl]-methyl-[6-(1H-pyrazol-4-yl)-quinoxalin-2-yl]-amine] | < 1000 | < 20
[O-][n+]1nc(NCc2ccccc2)nc2ccc(-c3cn[nH]c3)cc21 [Example 61, Benzyl-[1-oxy-7-(1H-pyrazol-4-yl)-benzo[1,2,4]triazin-3-yl]-amine] | < 1000 | –
[O-][n+]1nc(NCc2ccc(Cl)cc2)nc2ccc(-c3cn[nH]c3)cc21 [Example 62, (4-Chloro-benzyl)-[1-oxy-7-(1H-pyrazol-4-yl)-benzo[1,2,4]triazin-3-yl]-amine] | < 1000 | –
[O-][n+]1nc(NCc2cccc(Cl)c2)nc2ccc(-c3cn[nH]c3)cc21 [Example 63, (3-Chloro-benzyl)-[1-oxy-7-(1H-pyrazol-4-yl)-benzo[1,2,4]triazin-3-yl]-amine] | < 1000 | –
c1ccc(CNc2nnc3cc(-c4cn[nH]c4)ccc3n2)cc1 [Example 64, Benzyl-[7-(1H-pyrazol-4-yl)-benzo[1,2,4]triazin-3-yl]-amine] | < 1000 | –
[O-][n+]1cc(NCc2ccccc2)nc2ccc(-c3cn[nH]c3)cc21 [Example 65C, benzyl-[4-oxy-6-(1H-pyrazol-4-yl)-quinoxalin-2-yl]-amine] | < 1000 | –
